Results reported in ChEMBL document CHEMBL5247667, “Design, synthesis and characterizations of prodrugs of brexanolone” (Bioorg Med Chem Lett, 2023).

Experiments:
[1] = Metabolic stability in beagle dog plasma assessed as half life at 1 uM incubated for 60 min by LC-MS/MS method; format: ADME, cell-free, Canis lupus familiaris
[2] = Metabolic stability in beagle dog liver S9 fraction assessed as half life at 1 uM incubated for 60 min by LC-MS/MS method; format: ADME, subcellular, Canis lupus familiaris
[3] = Metabolic stability in human liver S9 fraction assessed as half life at 1 uM incubated for 60 min by LC-MS/MS method; format: ADME, subcellular
[4] = Metabolic stability in Sprague-Dawley rat plasma assessed as half life at 1 uM incubated for 60 min by LC-MS/MS method; format: ADME, cell-free
[5] = Metabolic stability in human plasma assessed as half life at 1 uM incubated for 60 min by LC-MS/MS method; format: ADME, cell-free
[6] = Cmax in Sprague-Dawley rat assessed as BXN at 5 mg/kg, IM administered for 30 mins measured after 24 hrs post dose by LC-MS/MS analysis; format: ADME, organism-based; parameters: time 24.5 hrs, dose 5 mg/kg, route im; settings: in vivo, 24.5 h
[7] = Half life in Sprague-Dawley rat at 5 mg/kg, IM administered for 30 mins measured after 24 hrs post dose by LC-MS/MS analysis; format: ADME, organism-based; settings: in vivo, time 24.5 hrs
[8] = Prodrug conversion in beagle dog assessed as ratio of AUC for compound to BXN at 5 mg/kg,IM and measured after 60 mins by LC-MS/MS analysis; format: ADME, organism-based, Canis lupus familiaris; settings: in vivo, 1 h
[9] = AUClast in Sprague-Dawley rat assessed as BXN at 5 mg/kg, IM administered for 30 mins measured after 24 hrs post dose by LC-MS/MS analysis; format: ADME, organism-based; parameters: time 24.5 hrs, dose 5 mg/kg, route im; settings: in vivo, 24.5 h
[10] = AUClast in Sprague-Dawley rat at 5 mg/kg, IM administered for 30 mins measured after 24 hrs post dose by LC-MS/MS analysis; format: ADME, organism-based; parameters: time 24.5 hrs, dose 5 mg/kg, route im; settings: in vivo
[11] = Cmax in Sprague-Dawley rat at 5 mg/kg, IM administered for 30 mins measured after 24 hrs post dose by LC-MS/MS analysis; format: ADME, organism-based; parameters: time 24.5 hrs, dose 5 mg/kg, route im; settings: in vivo
[12] = Metabolic stability in Sprague-Dawley rat liver S9 fraction assessed as half life at 1 uM incubated for 60 min by LC-MS/MS method; format: ADME, subcellular
[13] = Half life in Sprague-Dawley rat assessed as BXN at 1 mg/kg, IV administered for 30 mins measured after 24 hrs post dose by LC-MS/MS analysis; format: ADME, organism-based; settings: in vivo, 24.5 h
[14] = AUClast in beagle dog at 5 mg/kg, IM administered for 30 mins measured after 24 hrs post dose by LC-MS/MS analysis; format: ADME, organism-based, Canis lupus familiaris; parameters: dose 5 mg/kg, time 24.5 hrs, route im; settings: in vivo
[15] = Cmax in beagle dog at 1 mg/kg, IV administered for 30 mins measured after 24 hrs post dose by LC-MS/MS analysis; format: ADME, organism-based, Canis lupus familiaris; parameters: time 24.5 hrs, dose 1 mg/kg, route iv; settings: in vivo
[16] = Cmax in beagle dog assessed as BXN at 5 mg/kg, IM administered for 30 mins measured after 24 hrs post dose by LC-MS/MS analysis; format: ADME, organism-based, Canis lupus familiaris; parameters: time 24.5 hrs, dose 5 mg/kg, route im; settings: in vivo, 24.5 h
[17] = Half life in beagle dog assessed as BXN at 5 mg/kg, IM administered for 30 mins measured after 24 hrs post dose by LC-MS/MS analysis; format: ADME, organism-based, Canis lupus familiaris; settings: in vivo, 24.5 h
[18] = Cmax in Sprague-Dawley rat at 1 mg/kg, IV administered for 30 mins measured after 24 hrs post dose by LC-MS/MS analysis; format: ADME, organism-based; parameters: time 24.5 hrs, dose 1 mg/kg, route iv; settings: in vivo
[19] = Prodrug conversion in Sprague-Dawley rat assessed as ratio of AUC for compound to BXN at 1 mg/kg,IV and measured after 60 mins by LC-MS/MS analysis; format: ADME, organism-based; settings: in vivo, 1 h
[20] = Prodrug conversion in Sprague-Dawley rat assessed as ratio of AUC for compound to BXN at 5 mg/kg,IM and measured after 60 mins by LC-MS/MS analysis; format: ADME, organism-based; settings: in vivo, 1 h
[21] = AUClast in beagle dog assessed as BXN at 5 mg/kg, IM administered for 30 mins measured after 24 hrs post dose by LC-MS/MS analysis; format: ADME, organism-based, Canis lupus familiaris; parameters: time 24.5 hrs, dose 5 mg/kg, route im; settings: in vivo, 24.5 h
[22] = AUClast in beagle dog assessed as BXN at 1 mg/kg, IV administered for 30 mins measured after 24 hrs post dose by LC-MS/MS analysis; format: ADME, organism-based, Canis lupus familiaris; parameters: dose 1 mg/kg, time 24.5 hrs, route iv; settings: in vivo, 24.5 h
[23] = AUClast in Sprague-Dawley rat assessed as BXN at 1 mg/kg, IV administered for 30 mins measured after 24 hrs post dose by LC-MS/MS analysis; format: ADME, organism-based; parameters: dose 1 mg/kg, time 24.5 hrs, route iv; settings: in vivo, 24.5 h
[24] = Prodrug conversion in beagle dog assessed as ratio of AUC for compound to BXN at 1 mg/kg,IV and measured after 60 mins by LC-MS/MS analysis; format: ADME, organism-based, Canis lupus familiaris; settings: in vivo, 1 h
[25] = AUClast in beagle dog at 1 mg/kg, IV administered for 30 mins measured after 24 hrs post dose by LC-MS/MS analysis; format: ADME, organism-based, Canis lupus familiaris; parameters: time 24.5 hrs, dose 1 mg/kg, route iv; settings: in vivo
[26] = AUClast in Sprague-Dawley rat at 1 mg/kg, IV administered for 30 mins measured after 24 hrs post dose by LC-MS/MS analysis; format: ADME, organism-based; parameters: dose 1 mg/kg, time 24.5 hrs, route iv; settings: in vivo
[27] = Cmax in beagle dog assessed as BXN at 1 mg/kg, IV administered for 30 mins measured after 24 hrs post dose by LC-MS/MS analysis; format: ADME, organism-based, Canis lupus familiaris; parameters: dose 1 mg/kg, time 24.5 hrs, route iv; settings: in vivo, 24.5 h
[28] = Cmax in Sprague-Dawley rat assessed as BXN at 1 mg/kg, IV administered for 30 mins measured after 24 hrs post dose by LC-MS/MS analysis; format: ADME, organism-based; parameters: time 24.5 hrs, dose 1 mg/kg, route iv; settings: in vivo, 24.5 h
[29] = Cmax in beagle dog at 5 mg/kg, IM administered for 30 mins measured after 24 hrs post dose by LC-MS/MS analysis; format: ADME, organism-based, Canis lupus familiaris; parameters: time 24.5 hrs, dose 5 mg/kg, route im; settings: in vivo

Compound: CC(=O)[C@H]1CC[C@H]2[C@@H]3CC[C@H]4C[C@H](OC(=O)N(C)CCOC(=O)C(C)C)CC[C@]4(C)[C@H]3CC[C@]12C
- half-life at 1 µM [1]: 138 min
- half-life at 1 µM [2]: 1.8 min
- half-life at 1 µM [3]: 0.9 min
- half-life at 1 µM [4]: 1.6 min
- half-life at 1 µM [5]: 176 min

Compound: CCCCCCCC(=O)O[C@@H]1CC[C@@]2(C)[C@@H](CC[C@@H]3[C@@H]2CC[C@]2(C)[C@@H](C(C)=O)CC[C@@H]32)C1
- half-life at 1 µM [3]: 34.3 min
- half-life at 1 µM [5]: > 300 min

Compound: COC(=O)N(C)CCOC(=O)O[C@@H]1CC[C@@]2(C)[C@@H](CC[C@@H]3[C@@H]2CC[C@]2(C)[C@@H](C(C)=O)CC[C@@H]32)C1
- half-life at 1 µM [3]: 0.7 min
- half-life at 1 µM [5]: 289 min

Compound: CCCCCC(=O)O[C@@H]1CC[C@@]2(C)[C@@H](CC[C@@H]3[C@@H]2CC[C@]2(C)[C@@H](C(C)=O)CC[C@@H]32)C1
- Cmax [6]: 12.9 ng/mL
- half-life at 1 µM [3]: 22.9 min
- half-life [7]: 476 min
- Ratio AUC [8]: 0.09
- half-life at 1 µM [4]: > 289 min
- AUClast [9]: 67.9 ng·h/mL
- AUC(0-t) at 24.5 h [10]: 716 ng·h/mL
- Cmax [11]: 130 ng/mL
- half-life at 1 µM [12]: 4.7 min
- half-life at 1 µM [5]: > 300 min

Compound: CC(=O)[C@H]1CC[C@H]2[C@@H]3CC[C@H]4C[C@H](OC(=O)OCCOC(=O)C(C)C)CC[C@]4(C)[C@H]3CC[C@]12C
- half-life at 1 µM [1]: 92 min
- t1/2 [13]: 810 min
- half-life at 1 µM [2]: 2.5 min
- Cmax [6]: 81.2 ng/mL
- AUC(0-t) at 24.5 h [14]: 36.5 ng·h/mL
- Cmax [15]: 590 ng/mL
- half-life at 1 µM [3]: 2.5 min
- Cmax [16]: 11.3 ng/mL
- t1/2 [17]: 53.3 h
- Cmax [18]: 45.6 ng/mL
- Ratio AUC [19]: > 390
- half-life [7]: 143 min
- Ratio AUC [20]: 28
- AUClast [21]: 119 ng·h/mL
- Ratio AUC [8]: 3.3
- half-life at 1 µM [4]: < 3 min
- AUClast [22]: 24 ng·h/mL
- AUClast [9]: 390 ng·h/mL
- AUClast [23]: 256 ng·h/mL
- Ratio AUC [24]: 0.1
- AUC(0-t) at 24.5 h [25]: 238 ng·h/mL
- AUC(0-t) at 24.5 h [26]: 9.03 ng·h/mL
- Cmax [27]: 41.9 ng/mL
- Cmax [28]: 119 ng/mL
- half-life at 1 µM [5]: 90 min
- Cmax [29]: 31.4 ng/mL

Compound: CCCCOC(=O)O[C@@H]1CC[C@@]2(C)[C@@H](CC[C@@H]3[C@@H]2CC[C@]2(C)[C@@H](C(C)=O)CC[C@@H]32)C1
- half-life at 1 µM [1]: 132 min
- half-life at 1 µM [2]: 1.5 min
- half-life at 1 µM [3]: 1.6 min
- half-life at 1 µM [4]: 6.3 min
- half-life at 1 µM [12]: 16 min
- half-life at 1 µM [5]: > 233 min

Compound: CC(=O)OCCCCC(=O)O[C@@H]1CC[C@@]2(C)[C@@H](CC[C@@H]3[C@@H]2CC[C@]2(C)[C@@H](C(C)=O)CC[C@@H]32)C1
- half-life at 1 µM [1]: 87 min
- half-life at 1 µM [2]: 1 min
- half-life at 1 µM [3]: 0.8 min
- half-life at 1 µM [5]: 107 min
